This note sets out measurements from patent US10844038B2, “1,2-dithiolane compounds useful in neuroprotection, autoimmune and cancer diseases and conditions” (SABILA BIOSCIENCES LLC, priority 2016, dated 2020).

Structures are written as SMILES.

What all share (experiment): Radioisotope filter binding assay
What all share (format): biochemical

In test [1] the target is PI3K γ (Homo sapiens (Human), UniProt P48736). The note with it: read-out: IC50 Activity Levels Against Various PI3K and mTor Kinases: PI3K γ. The protocol: (§1) 3. Radioisotope Filter Binding Assay:
(§2) In this assay format, it directly detects the true product without the use of modified substrates or coupling enzymes (Uitdehaag, J. C., et al. Br. J. Pharmacol. 2012, 166, 858-876; Hastie, C. J., et al. Nat. Protoc. 2006, 1, 968-971) according to equation 1. Substrate+[γ−^33P]−ATP→^33P-Substrate+ADP eq 1
(§3) The protocol calls for test compound of the invention to be incubated with kinase, substrate, cofactors, and radio-isotope-labeled ATP (^33P-gamma-ATP). The reaction mixtures are then spotted onto filter papers which bind the radioisotope labeled catalytic product. Unreacted phosphate is removed via washing. The reagents used include base reaction buffer; 20 mM Hepes (pH 7.5), 10 mM MgCl2, 1 mM EGTA, 0.02% Brij35, 0.02 mg/ml BSA, 0.1 mM Na3VO4, 2 mM DTT, 1% DMSO. The reaction procedure include the following steps: (1) prepare indicated substrate in freshly prepared base reaction buffer, (2) deliver any required cofactors to the substrate solution above, (3) deliver indicated kinase into the substrate solution and gently mix, (4) deliver compounds in DMSO into the kinase reaction mixture by Acoustic technology (Echo550; nanoliter range), incubate for 20 minutes at room temperature, (5) deliver ^33P-ATP (specific activity 10 μCi/μL) into the reaction mixture to initiate the reaction, (6) incubate kinase reaction for 2 hours at room temperature, (7) reactions are spotted onto P81 ion exchange paper, (8) detect kinase activity by filter-binding method.

Test [2] addresses PI3K β (Homo sapiens (Human), UniProt P42338). The note with it: read-out: IC50 Activity Levels Against Various PI3K and mTor Kinases: PI3K β. How it is done: as §1, §2, §3
For test [3], the target named is mTor/FRAP1 (Homo sapiens (Human), UniProt P42345). The note with it: read-out: IC50 Activity Levels Against Various PI3K and mTor Kinases: mTor/FRAP1. How it is done:
as §1, §2, §3

The target of test [4] is PI3K α (Homo sapiens (Human), UniProt P42336). The note with it: read-out: IC50 Activity Levels Against Various PI3K and mTor Kinases: PI3K α. The protocol: as §1, §2, §3
Sequence of PI3K α (P42336 whole entry): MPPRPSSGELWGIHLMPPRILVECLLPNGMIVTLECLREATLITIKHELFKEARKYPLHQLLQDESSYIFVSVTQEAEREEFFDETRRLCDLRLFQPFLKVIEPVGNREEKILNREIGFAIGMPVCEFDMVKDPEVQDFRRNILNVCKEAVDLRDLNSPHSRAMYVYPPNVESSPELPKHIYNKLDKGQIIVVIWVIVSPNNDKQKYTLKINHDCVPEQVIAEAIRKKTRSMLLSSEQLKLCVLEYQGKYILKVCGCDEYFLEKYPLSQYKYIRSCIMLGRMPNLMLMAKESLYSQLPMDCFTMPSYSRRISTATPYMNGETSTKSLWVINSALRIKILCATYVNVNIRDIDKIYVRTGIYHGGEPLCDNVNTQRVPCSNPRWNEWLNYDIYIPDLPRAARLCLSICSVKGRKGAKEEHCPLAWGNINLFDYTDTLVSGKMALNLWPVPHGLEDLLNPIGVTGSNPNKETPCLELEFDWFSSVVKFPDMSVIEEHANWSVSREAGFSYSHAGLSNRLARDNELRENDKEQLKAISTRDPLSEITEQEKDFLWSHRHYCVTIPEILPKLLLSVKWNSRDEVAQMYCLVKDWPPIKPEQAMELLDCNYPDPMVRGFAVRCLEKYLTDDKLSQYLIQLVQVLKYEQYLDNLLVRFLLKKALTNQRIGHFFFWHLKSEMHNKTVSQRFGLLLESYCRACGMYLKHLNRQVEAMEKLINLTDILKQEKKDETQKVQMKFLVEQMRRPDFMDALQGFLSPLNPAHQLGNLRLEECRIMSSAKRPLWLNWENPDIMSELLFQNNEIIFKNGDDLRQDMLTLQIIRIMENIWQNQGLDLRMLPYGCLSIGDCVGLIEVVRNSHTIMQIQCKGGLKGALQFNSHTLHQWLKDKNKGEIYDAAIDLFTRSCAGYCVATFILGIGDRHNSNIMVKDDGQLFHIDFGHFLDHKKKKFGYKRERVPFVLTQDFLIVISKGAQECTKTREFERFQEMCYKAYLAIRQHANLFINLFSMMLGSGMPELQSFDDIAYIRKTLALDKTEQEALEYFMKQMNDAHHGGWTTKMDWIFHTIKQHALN
Sequence of PI3K α (P27986 whole entry partner): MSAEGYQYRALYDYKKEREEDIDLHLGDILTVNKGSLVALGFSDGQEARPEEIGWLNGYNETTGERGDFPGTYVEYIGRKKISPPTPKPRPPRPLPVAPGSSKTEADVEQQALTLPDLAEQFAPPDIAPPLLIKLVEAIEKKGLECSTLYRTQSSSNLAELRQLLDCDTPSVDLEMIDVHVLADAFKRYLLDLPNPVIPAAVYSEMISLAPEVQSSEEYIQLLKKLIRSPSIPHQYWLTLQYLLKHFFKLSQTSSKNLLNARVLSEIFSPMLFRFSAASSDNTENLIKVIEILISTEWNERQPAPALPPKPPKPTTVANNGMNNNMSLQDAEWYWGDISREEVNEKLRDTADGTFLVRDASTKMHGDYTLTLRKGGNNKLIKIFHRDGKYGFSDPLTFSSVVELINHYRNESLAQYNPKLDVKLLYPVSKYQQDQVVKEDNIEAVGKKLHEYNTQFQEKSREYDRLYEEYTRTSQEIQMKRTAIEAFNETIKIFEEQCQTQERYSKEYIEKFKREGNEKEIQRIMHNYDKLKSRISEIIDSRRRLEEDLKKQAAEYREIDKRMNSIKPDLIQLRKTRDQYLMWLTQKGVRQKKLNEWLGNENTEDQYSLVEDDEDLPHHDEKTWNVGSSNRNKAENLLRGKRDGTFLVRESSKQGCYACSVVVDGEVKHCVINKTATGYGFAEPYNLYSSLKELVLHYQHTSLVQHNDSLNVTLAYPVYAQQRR

Sequence of PI3K γ (P48736 whole entry): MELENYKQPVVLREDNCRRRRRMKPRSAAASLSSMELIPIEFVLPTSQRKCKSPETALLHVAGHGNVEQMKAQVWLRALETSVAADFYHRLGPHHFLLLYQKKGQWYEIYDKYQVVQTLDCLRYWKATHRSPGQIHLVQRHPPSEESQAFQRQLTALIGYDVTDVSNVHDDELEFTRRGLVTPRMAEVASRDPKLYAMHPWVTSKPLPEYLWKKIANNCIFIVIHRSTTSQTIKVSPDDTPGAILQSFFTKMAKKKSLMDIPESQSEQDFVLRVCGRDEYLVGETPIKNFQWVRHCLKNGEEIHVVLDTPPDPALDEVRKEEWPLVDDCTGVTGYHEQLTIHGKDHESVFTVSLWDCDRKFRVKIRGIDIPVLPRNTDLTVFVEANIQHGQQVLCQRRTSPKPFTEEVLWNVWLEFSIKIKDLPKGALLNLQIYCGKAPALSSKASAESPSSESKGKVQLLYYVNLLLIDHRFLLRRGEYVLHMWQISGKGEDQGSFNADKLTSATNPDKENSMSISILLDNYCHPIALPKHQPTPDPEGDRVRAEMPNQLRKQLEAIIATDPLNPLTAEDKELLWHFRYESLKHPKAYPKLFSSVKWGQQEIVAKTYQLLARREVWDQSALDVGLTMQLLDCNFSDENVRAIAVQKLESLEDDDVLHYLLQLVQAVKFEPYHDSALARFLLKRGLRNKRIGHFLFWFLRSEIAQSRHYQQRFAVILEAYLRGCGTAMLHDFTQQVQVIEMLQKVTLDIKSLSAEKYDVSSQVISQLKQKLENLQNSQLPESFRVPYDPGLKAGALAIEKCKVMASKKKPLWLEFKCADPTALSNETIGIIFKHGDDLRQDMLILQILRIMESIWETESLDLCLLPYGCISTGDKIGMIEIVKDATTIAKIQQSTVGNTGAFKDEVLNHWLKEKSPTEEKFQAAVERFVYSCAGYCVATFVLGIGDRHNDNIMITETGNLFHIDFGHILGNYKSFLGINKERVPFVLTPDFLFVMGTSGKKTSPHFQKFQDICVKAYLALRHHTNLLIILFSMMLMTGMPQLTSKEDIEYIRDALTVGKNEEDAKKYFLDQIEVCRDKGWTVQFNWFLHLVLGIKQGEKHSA
Sequence of PI3K β (P42338 whole entry): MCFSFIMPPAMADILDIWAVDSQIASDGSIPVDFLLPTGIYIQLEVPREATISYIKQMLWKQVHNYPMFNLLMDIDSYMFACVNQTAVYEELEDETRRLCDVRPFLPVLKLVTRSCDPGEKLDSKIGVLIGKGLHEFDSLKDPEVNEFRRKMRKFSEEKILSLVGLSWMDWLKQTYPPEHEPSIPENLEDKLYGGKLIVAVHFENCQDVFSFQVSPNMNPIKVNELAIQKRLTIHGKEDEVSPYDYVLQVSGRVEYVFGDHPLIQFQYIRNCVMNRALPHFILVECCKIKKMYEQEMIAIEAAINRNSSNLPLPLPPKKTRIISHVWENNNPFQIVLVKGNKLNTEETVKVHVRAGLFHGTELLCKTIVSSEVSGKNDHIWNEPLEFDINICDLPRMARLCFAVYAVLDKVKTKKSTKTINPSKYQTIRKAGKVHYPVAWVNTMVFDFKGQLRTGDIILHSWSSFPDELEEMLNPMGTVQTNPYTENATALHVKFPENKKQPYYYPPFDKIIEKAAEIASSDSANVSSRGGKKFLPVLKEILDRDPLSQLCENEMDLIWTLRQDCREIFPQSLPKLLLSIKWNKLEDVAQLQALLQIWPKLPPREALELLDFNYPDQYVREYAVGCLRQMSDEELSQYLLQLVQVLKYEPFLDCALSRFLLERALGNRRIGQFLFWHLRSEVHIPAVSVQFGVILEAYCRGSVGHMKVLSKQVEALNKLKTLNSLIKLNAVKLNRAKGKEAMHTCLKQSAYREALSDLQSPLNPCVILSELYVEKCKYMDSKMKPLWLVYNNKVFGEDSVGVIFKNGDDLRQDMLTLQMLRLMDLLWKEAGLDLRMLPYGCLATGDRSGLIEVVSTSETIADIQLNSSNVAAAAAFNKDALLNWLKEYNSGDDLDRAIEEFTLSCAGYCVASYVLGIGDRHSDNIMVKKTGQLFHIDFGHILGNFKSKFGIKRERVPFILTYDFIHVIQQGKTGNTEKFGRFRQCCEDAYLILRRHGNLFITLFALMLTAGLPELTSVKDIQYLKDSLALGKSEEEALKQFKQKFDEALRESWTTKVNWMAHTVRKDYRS
Sequence of PI3K β (P27986 whole entry partner): as the sequence (P27986 whole entry partner) above

As for `Nc1nc2cc(-c3nn(C[C@@H]4SSC[C@H]4OC(=O)c4ccccc4)c4ncnc(N)c34)ccc2o1` (relative stereo) [Example 55, trans 3-((4-Amino-3-(2-aminobenzo[d]oxazol-5-yl)-1H-pyrazolo[3,4-d]pyrimidin-1-yl)methyl)-1,2-dithiolan-4-yl benzoate], the IC50 is 1000 to 10000 nM in test [1], 1000 to 10000 nM in test [2], 5 to 99 nM in test [3] and 100 to 999 nM in test [4].
